Among the data in ChEMBL document CHEMBL1909046, “DrugMatrix in vitro pharmacology data” are IC50 and Ki values, retold here.

Series [1] addresses Cytochrome P450 2E1 (Homo sapiens, UniProt P05181). Conditions: bti-tn-5b1-4.
Series [2] can be described thus: DRUGMATRIX: Tumor Necrosis Factor (TNF), Non-Selective radioligand binding (ligand: [125I] TNF-alpha). It counts as cell membranes, Membrane. To be noted: u-937; Not Active = under 50% inhibition at 10 µM.
Series [3] has as its target T1, Receptor-type tyrosine-protein phosphatase C (Homo sapiens, UniProt P08575).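 Further: inhibition of CD45 enzyme activity measured using DiFMUP as substrate; in other assays of this panel Not Active means under 50% inhibition at 10 µM.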
T1 sequence (P08575 whole entry): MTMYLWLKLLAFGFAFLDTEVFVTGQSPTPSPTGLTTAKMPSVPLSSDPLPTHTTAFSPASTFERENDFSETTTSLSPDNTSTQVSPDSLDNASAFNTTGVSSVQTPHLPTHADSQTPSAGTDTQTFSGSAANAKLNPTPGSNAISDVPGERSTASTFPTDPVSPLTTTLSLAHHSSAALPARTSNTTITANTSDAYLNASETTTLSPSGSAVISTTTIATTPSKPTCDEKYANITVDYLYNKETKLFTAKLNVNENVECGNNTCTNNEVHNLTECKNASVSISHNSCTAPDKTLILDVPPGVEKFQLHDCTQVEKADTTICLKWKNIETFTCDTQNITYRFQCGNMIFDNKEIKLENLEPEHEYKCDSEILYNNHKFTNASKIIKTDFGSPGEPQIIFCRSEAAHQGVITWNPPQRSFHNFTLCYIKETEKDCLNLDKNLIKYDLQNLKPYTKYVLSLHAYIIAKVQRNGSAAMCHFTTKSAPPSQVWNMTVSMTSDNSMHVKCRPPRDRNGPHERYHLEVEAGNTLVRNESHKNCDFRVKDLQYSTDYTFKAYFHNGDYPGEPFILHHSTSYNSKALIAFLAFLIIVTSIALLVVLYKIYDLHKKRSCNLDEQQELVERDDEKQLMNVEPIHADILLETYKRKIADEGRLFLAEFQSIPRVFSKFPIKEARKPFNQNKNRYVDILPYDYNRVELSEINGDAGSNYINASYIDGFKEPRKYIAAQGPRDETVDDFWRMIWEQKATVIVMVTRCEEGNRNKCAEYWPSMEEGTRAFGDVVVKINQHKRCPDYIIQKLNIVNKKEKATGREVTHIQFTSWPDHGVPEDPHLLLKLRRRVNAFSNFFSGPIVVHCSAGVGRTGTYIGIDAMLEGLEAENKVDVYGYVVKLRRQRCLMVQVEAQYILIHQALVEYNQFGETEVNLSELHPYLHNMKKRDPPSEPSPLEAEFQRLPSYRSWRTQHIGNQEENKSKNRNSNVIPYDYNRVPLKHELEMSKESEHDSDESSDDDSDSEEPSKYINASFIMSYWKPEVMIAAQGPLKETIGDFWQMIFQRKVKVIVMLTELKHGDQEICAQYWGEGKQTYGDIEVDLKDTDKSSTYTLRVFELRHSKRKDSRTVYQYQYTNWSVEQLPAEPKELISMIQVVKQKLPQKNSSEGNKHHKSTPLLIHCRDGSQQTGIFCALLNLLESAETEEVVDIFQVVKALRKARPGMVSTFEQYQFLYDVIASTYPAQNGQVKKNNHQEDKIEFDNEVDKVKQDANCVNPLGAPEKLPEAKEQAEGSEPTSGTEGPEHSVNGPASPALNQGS
On the set-up: species or system Escherichia coli.

Series [4] concerns the target T2, Thromboxane-A synthase (Homo sapiens, UniProt P24557).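 Further: enzyme inhibition assay with PGH2 supplied as substrate; in other assays of this panel Not Active means under 50% inhibition at 10 µM.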
T2 sequence (P24557 whole entry): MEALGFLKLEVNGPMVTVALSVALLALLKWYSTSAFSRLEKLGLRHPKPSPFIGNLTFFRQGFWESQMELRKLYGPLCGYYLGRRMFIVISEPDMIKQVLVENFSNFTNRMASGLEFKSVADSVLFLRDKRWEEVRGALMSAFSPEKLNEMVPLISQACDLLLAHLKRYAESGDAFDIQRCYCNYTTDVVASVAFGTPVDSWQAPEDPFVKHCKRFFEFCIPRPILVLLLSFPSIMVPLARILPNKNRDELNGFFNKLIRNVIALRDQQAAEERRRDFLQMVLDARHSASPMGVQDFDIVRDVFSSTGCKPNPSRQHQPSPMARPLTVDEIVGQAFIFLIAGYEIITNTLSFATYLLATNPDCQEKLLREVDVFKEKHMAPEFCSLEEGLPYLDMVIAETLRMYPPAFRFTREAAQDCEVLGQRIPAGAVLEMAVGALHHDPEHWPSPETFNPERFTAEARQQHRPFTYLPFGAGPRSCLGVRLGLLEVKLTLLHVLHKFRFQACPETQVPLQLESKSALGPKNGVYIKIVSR
The series is described as follows: biochemical. It counts as tissue-based, Platelet.

Series [5] concerns the target T3, Progesterone receptor (Bos taurus, UniProt Q690N0).
T3 sequence (Q690N0 whole entry): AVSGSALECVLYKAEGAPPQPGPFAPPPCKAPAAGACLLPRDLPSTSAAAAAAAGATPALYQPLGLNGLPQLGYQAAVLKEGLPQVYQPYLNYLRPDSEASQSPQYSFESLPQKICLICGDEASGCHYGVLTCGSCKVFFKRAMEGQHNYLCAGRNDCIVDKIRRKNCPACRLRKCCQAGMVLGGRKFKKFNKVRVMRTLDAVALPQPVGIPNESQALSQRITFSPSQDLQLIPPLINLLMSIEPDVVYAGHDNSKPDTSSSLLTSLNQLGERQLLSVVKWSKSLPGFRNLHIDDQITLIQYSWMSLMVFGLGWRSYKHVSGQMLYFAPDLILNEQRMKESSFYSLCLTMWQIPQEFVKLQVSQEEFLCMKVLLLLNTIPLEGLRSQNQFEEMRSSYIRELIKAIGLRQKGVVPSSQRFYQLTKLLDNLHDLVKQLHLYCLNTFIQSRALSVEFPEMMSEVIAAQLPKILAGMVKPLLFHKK
The series is described as follows: DRUGMATRIX: Progesterone radioligand binding (ligand: [3H] R-5020). It counts as tissue-based, Uterus. Conditions: Not Active = under 50% inhibition at 10 µM.

Series [6] concerns the target Delta-type opioid receptor (Homo sapiens, UniProt P41143). It counts as cell membranes, HEK293, Membrane. To be noted: hek293. Further: in other assays of this panel Not Active means under 50% inhibition at 10 µM.

Sequence of Delta-type opioid receptor (P41143 whole entry): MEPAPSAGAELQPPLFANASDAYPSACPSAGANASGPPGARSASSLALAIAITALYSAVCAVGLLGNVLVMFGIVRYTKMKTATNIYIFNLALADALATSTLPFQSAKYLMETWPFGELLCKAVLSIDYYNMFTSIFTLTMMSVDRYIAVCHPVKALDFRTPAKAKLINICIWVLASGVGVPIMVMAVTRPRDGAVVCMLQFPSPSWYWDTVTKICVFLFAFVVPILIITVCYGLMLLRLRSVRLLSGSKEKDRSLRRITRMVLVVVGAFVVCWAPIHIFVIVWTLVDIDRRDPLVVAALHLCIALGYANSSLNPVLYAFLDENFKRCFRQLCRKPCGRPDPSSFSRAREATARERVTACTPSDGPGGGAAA
Sequence of Cytochrome P450 2E1 (P05181 whole entry): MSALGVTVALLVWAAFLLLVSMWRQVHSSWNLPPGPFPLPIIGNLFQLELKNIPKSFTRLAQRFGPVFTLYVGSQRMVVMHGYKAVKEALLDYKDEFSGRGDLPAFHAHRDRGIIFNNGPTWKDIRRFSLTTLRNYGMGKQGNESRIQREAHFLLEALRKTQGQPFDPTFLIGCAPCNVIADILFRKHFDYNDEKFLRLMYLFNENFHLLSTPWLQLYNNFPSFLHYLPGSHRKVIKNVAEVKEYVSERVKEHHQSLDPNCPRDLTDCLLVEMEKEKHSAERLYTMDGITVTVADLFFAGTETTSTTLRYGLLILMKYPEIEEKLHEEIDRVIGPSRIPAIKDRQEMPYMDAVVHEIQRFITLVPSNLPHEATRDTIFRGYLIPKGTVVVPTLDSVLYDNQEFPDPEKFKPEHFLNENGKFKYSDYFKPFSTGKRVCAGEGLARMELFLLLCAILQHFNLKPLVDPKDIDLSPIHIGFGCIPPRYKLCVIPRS

For the molecule `CC(C)(C)NC(=O)[C@@H]1CN(Cc2cccnc2)CCN1C[C@@H](O)C[C@@H](Cc1ccccc1)C(=O)N[C@H]1c2ccccc2C[C@H]1O.O`, the IC50 result in series [1] is “Not Active”; in series [2], “Not Active”; in series [3], “Not Active”; in series [4] (read-out: IC50) it was 1850 nM; in series [5], “Not Active”; in series [6] it was “Not Active”. Further, the Ki entry in series [1] and in series [2] was “Not Active” each time.
Consider `COc1cc(C(=O)NC2CCCNC2)cc(OC)c1OC` (stereo not drawn) [TROXIPIDE], for which the IC50 result in series [1], in series [2], in series [3], in series [4] (platelet), in series [5] and in series [6] was “Not Active” in each case. Also, the Ki result in series [1] and in series [2] was “Not Active” in each case.
Turning to `CC(C)(C)NCC(O)c1ccc(O)c(CO)c1` (stereo not drawn) [ALBUTEROL], the IC50 entry in series [1], in series [2], in series [3], in series [4] (platelet), in series [5] and in series [6] was “Not Active” throughout. Moreover, the Ki entry in series [1] and in series [2] was “Not Active” in each case.
`CC1(C)[C@H]2CC[C@]1(C)C(=O)C2` [(-)-CAMPHOR]: the IC50 entry in series [1], in series [2], in series [3], in series [4] (platelet), in series [5] and in series [6] was “Not Active” each time. The Ki result in series [1] and in series [2] was “Not Active” in each case.
In the case of `NNc1ccccc1` [PHENYLHYDRAZINE], the IC50 result in series [1], in series [2], in series [3], in series [4] (platelet), in series [5] and in series [6] was “Not Active” each time. Further, the Ki result in series [1] and in series [2] was “Not Active” in each case.
On to `CC[C@H]1OC(=O)[C@H](C)[C@@H](O[C@H]2C[C@@](C)(OC)[C@@H](O)[C@H](C)O2)[C@H](C)[C@@H](O[C@@H]2O[C@H](C)C[C@H](N(C)C)[C@H]2O)[C@](C)(O)C[C@@H](C)/C(=N\OCOCCOC)[C@H](C)[C@@H](O)[C@]1(C)O` [ROXITHROMYCIN], for which the IC50 entry in series [1], in series [2], in series [3], in series [4] (platelet), in series [5] and in series [6] was “Not Active” each time. In addition, the Ki entry in series [1] and in series [2] was “Not Active” in each case.
`Nc1ccc(S(=O)(=O)Nc2ccnn2-c2ccccc2)cc1` [SULFAPHENAZOLE]: the IC50 entry in series [1], in series [2], in series [3], in series [4] (platelet), in series [5] and in series [6] was “Not Active” each time. Also, the Ki result in series [1] and in series [2] was “Not Active” each time.
As to `CCOC(=O)[C@H](CCc1ccccc1)N[C@@H](C)C(=O)N1[C@H](C(=O)O)C[C@@H]2CCC[C@@H]21`, the IC50 result in series [1], in series [2], in series [3], in series [4] (platelet), in series [5] and in series [6] was “Not Active” throughout. Also, the Ki result in series [1] and in series [2] was “Not Active” throughout.
For the molecule `NCCCC[C@H](N[C@@H](CCc1ccccc1)C(=O)O)C(=O)N1CCC[C@H]1C(=O)O` [LISINOPRIL ANHYDROUS], the IC50 result in series [1], in series [2], in series [3], in series [4] (platelet), in series [5] and in series [6] was “Not Active” each time. Also, the Ki entry in series [1] and in series [2] was “Not Active” each time.
Turning to `Cc1ccc(C(=O)C(C)CN2CCCCC2)cc1` (stereo not drawn) [TOLPERISONE], the IC50 result in series [1], in series [2], in series [3], in series [4] (platelet), in series [5] and in series [6] was “Not Active” each time. Besides, the Ki entry in series [1] and in series [2] was “Not Active” throughout.
For the molecule IVERMECTIN, the IC50 entry in series [1], in series [2], in series [3], in series [4] (platelet), in series [5] and in series [6] was “Not Active” in each case. In addition, the Ki result in series [1], in series [2], in series [3], in series [4] (platelet), in series [5] and in series [6] was “Not Active” in each case.
On to `NC(=O)c1ncn([C@@H]2O[C@H](CO)[C@@H](O)[C@H]2O)n1` [RIBAVIRIN], for which the half-inhibitory concentration (IC50) result in series [1], in series [2], in series [3], in series [4] (platelet), in series [5] and in series [6] was “Not Active” throughout. Besides, the Ki entry in series [1] and in series [2] was “Not Active” in each case.
As to `Nc1nnc(-c2cccc(Cl)c2Cl)c(N)n1` [LAMOTRIGINE], the IC50 result in series [1], in series [2], in series [3], in series [4] (platelet), in series [5] and in series [6] was “Not Active” each time. Also, the Ki result in series [1] and in series [2] was “Not Active” throughout.
